From patent US8728517B2, “Pharmaceutical compositions of entacapone co-micronized with sugar alcohols” (Wockhardt Ltd., priority 2008, dated 2014)

Assay: Percent drug release of poorly soluble drugs combined with sugar alcohols
Format: physicochemical
Details: for effect on percent release: with sugar alcohols like mannitol or sorbitol, as physical mixture or complex

Row | Compound | effect on percent release | effect on percent drug release (co-micronized with sugar alcohols vs formulation not co-micronized with a sugar alcohol)
1 | O=C1CCc2ccc(OCCCCN3CCN(c4cccc(Cl)c4Cl)CC3)cc2N1 [aripiprazole] | does not make any significant difference | 
2 | CCN(CC)C(=O)/C(C#N)=C/c1cc(O)c(O)c([N+](=O)[O-])c1 [entacapone, (E)-2-cyano-3-(3,4-dihydroxy-5-nitrophenyl)-N,N-diethyl-2-propenamide] |  | significant increase
3 | CCCCC1=NC2(CCCC2)C(=O)N1Cc1ccc(-c2ccccc2-c2nnn[nH]2)cc1 [irbesartan] | does not make any significant difference | 
